Drawing on paper doi:10.1101/2020.06.06.138008v1 (biorxiv, 2020), this text covers Km for one molecule.

For the assay, the target named is MlaFEDB (Escherichia coli, UniProt P63386). To be noted: pH 8.0, 5 mM MgCl2, 150 mM NaCl, 0.5 mM DDM micelles; Hill n = 1.81 ± 0.35.
Chain of MlaFEDB (P63386 whole entry): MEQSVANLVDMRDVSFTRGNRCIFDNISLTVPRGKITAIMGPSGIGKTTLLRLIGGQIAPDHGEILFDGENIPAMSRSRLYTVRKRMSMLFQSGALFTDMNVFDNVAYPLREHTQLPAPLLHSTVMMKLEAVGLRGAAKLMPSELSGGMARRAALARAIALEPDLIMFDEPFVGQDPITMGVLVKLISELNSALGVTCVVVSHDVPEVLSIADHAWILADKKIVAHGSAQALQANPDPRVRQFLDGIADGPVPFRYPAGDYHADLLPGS
Chain of MlaFEDB (P64606 whole entry partner): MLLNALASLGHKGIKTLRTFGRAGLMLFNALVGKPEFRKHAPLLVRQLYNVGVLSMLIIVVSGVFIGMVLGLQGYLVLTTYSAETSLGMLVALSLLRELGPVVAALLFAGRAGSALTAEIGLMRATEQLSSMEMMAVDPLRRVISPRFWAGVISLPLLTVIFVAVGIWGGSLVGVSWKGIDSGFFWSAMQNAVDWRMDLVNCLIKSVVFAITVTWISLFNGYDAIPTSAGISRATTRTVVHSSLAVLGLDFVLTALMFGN
Chain of MlaFEDB (P64604 whole entry partner): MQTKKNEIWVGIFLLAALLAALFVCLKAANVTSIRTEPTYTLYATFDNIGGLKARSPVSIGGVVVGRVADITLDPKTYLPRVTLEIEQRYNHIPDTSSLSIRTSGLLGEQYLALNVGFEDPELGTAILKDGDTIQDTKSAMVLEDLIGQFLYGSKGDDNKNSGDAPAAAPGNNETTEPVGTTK
Chain of MlaFEDB (P64602 whole entry partner): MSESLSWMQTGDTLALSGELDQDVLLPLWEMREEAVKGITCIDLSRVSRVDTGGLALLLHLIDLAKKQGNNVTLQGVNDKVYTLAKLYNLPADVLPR

Regarding `Nc1ncnc2c1ncn2[C@@H]1O[C@H](COP(=O)(O)OP(=O)(O)OP(=O)(O)O)[C@@H](O)[C@H]1O` [ATP], the Km came to 200 ± 44.6 µM.

Usually Km stands for the concentration of substrate that gives half-maximal velocity.
